The record followed here is patent US9951065B2 (Gilead Sciences, Inc., priority 2015, dated 2018).

Broadly, the EC50 is the concentration needed to bring the measured effect to its halfway point. A lower EC50 goes with greater potency.

For the first assay, the target named is T1, IDO1 (Homo sapiens, UniProt P14902).
T1 construct: HeLa cells were treated with a test compound in the presence of IFNγ, which induces IDO1 expression; host or cells: H1-HeLa cells, IDO1 induced with IFNγ
T1 sequence (P14902 whole entry): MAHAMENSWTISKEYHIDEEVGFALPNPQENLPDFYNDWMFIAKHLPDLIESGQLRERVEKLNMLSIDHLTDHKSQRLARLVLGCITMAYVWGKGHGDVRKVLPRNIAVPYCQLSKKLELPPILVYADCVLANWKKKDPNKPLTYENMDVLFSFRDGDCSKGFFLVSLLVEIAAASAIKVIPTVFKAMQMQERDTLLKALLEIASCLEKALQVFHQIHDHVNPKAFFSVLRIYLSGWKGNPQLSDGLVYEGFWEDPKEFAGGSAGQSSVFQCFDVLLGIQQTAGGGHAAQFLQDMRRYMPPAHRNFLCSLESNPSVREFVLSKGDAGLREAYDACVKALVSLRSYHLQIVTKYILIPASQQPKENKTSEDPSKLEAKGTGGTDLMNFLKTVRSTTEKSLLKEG
The assay is described as follows: Cell-based (HeLa) assay for measurement of IDO1 inhibition (kynurenine levels in supernatant after IFNγ induction). The conditions noted are these: HeLa cells, IFNγ-induced IDO1, kynurenine in supernatant after 48 hour incubation; geometric mean of a minimum of four determinations. The procedure, abridged:
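IDO1 activity is read as kynurenine released into the medium, detected with Ehrlich's reagent (p-dimethylaminobenzaldehyde) at 480 nm after TCA treatment. HeLa cells were exposed 48 h to compounds in 0.5% DMSO alongside IFNγ induction. Values normalized to no-IFNγ and IFNγ controls; four-parameter EC50 given as geometric mean of ≥4 determinations.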
As to `O/N=C(\Nc1ccc(F)c(C#CC2CC2)c1)c1ccnc2nc[nH]c12` [Example 79, N-(3-(Cyclopropylethynyl)-4-fluorophenyl)-N′-hydroxy-1H-imidazo[4,5-b]pyridine-7-carboximidamide], a half-maximal effect (EC50) was put at 3.22 µM.

In turn, `COc1cc(N/C(=N\O)c2ccnc3nc[nH]c23)ccc1F` [Example 106, N-(4-Fluoro-3-methoxyphenyl)-N′-hydroxy-1H-imidazo[4,5-b]pyridine-7-carboximidamide] came in with an EC50 of 5.54 µM.

As to `OCCCNCc1nc2nccc(/C(=N/O)Nc3ccc(F)c(Cl)c3)c2[nH]1` [Example 138, N-(3-Chloro-4-fluorophenyl)-N′-hydroxy-2-(((3-hydroxypropyl)amino)methyl)-1H-imidazo[4,5-b]pyridine-7-carboximidamide], the EC50 amounted to 8.24 µM.

In the case of `O/N=C(\Nc1cc2ccccc2cc1Cl)c1ccnc2nc[nH]c12` [Example 103, N-(3-Chloronaphthalen-2-yl)-N′-hydroxy-1H-imidazo[4,5-b]pyridine-7-carboximidamide], it took 8.07 µM to reach a half-maximal effect (EC50).

For `O=S(=O)(CCNc1nc2nccc(/C(=N/O)Nc3ccc(F)c(Cl)c3)c2[nH]1)N1CCOCC1` [Example 236, N-(3-chloro-4-fluorophenyl)-N′-hydroxy-2-((2-(morpholinosulfonyl)ethyl)amino)-1H-imidazo[4,5-b]pyridine-7-carboximidamide], the EC50 turned out to be 4.77 µM.

Compound `O/N=C(\Nc1ccc(F)c(Cl)c1)c1ccnc2nc(CNc3ccccc3)[nH]c12` [Example 128, N-(3-Chloro-4-fluorophenyl)-N′-hydroxy-2-((phenylamino)methyl)-1H-imidazo[4,5-b]pyridine-7-carboximidamide] registered an EC50 of 2.4 µM.

The compound `COc1ccccc1CNCc1nc2nccc(/C(=N/O)Nc3ccc(F)c(Cl)c3)c2[nH]1` [Example 123, N-(3-Chloro-4-fluorophenyl)-N′-hydroxy-2-(((2-methoxybenzyl)amino)methyl)-1H-imidazo[4,5-b]pyridine-7-carboximidamide] had an EC50 of 1.91 µM.

Turning to `NS(=O)(=O)NCCc1nc2nccc(/C(=N/O)Nc3ccc(F)c(Cl)c3)c2[nH]1` [Example 267, N-(3-chloro-4-fluorophenyl)-N′-hydroxy-2-(2-(sulfamoylamino)ethyl)-1H-imidazo[4,5-b]pyridine-7-carboximidamide], the EC50 was greater than 10 µM.

For the compound `O/N=C(\Nc1ccc2ccccc2c1)c1ccnc2nc[nH]c12` [Example 102, N′-hydroxy-N-(naphthalen-2-yl)-1H-imidazo[4,5-b]pyridine-7-carboximidamide], the EC50 was 1.93 µM.

Compound `O/N=C(\Nc1ccc(F)c(Cl)c1)c1ccnc2nc(NC3COC3)[nH]c12` [Example 226, N-(3-chloro-4-fluorophenyl)-N′-hydroxy-2-(oxetan-3-ylamino)-1H-imidazo[4,5-b]pyridine-7-carboximidamide] displayed an EC50 greater than 10 µM.

Compound `O/N=C(\Nc1ccc(F)c(Cl)c1)c1ccnc2nc(CNCC3CCOC3)[nH]c12` (centres unmarked) [Example 135, N-(3-Chloro-4-fluorophenyl)-N′-hydroxy-2-((((tetrahydrofuran-3-yl)methyl)amino)methyl)-1H-imidazo[4,5-b]pyridine-7-carboximidamide] displayed an EC50 of 5.11 µM.

Consider `O/N=C(\Nc1ccc(F)c(Cl)c1)c1ccnc2nc(CNC3CC3)[nH]c12` [Example 119, N-(3-Chloro-4-fluorophenyl)-2-((cyclopropylamino)methyl)-N′-hydroxy-1H-imidazo[4,5-b]pyridine-7-carboximidamide], for which the EC50 is 2.15 µM.

The compound `Cc1ccc(N/C(=N\O)c2ccnc3nc[nH]c23)cc1` [Example 94, N′-Hydroxy-N-(p-tolyl)-1H-imidazo[4,5-b]pyridine-7-carboximidamide] showed an EC50 of 6.35 µM.

In the case of `CN(C)CCc1nc2nccc(/C(=N/O)Nc3cccc(Cl)c3)c2[nH]1` [Example 264, N-(3-chlorophenyl)-2-(2-(dimethylamino)ethyl),N′-hydroxy-1H-imidazo[4,5-b]pyridine-7-carboximidamide], the EC50 is 0.722 µM.

As to `NCCc1nc2nccc(/C(=N/O)Nc3ccc(F)c(Cl)c3)c2[nH]1` [Example 189, 2-(2-Aminoethyl)-N-(3-chloro-4-fluorophenyl)-N′-hydroxy-1H-imidazo[4,5-b]pyridine-7-carboximidamide], the EC50 came to 1.78 µM.

With `O/N=C(\Nc1ccc(F)c(Cl)c1F)c1ccnc2nc[nH]c12` [Example 64, N-(3-Chloro-2,4-difluorophenyl)-N′-hydroxy-1H-imidazo[4,5-b]pyridine-7-carboximidamide], it took 0.813 µM to reach a half-maximal effect (EC50).

For the compound `O/N=C(\Nc1ccc(F)c(Cl)c1)c1ccnc2nc(CNCc3nccs3)[nH]c12` [Example 144, N-(3-Chloro-4-fluorophenyl)-N′-hydroxy-2-(((thiazol-2-ylmethyl)amino)methyl)-1H-imidazo[4,5-b]pyridine-7-carboximidamide], a half-maximal effect (EC50) was put at 8.23 µM.

Turning to `O/N=C(\Nc1ccc(F)c(Cl)c1)c1ccnc2nc(-c3ccn[nH]3)[nH]c12` [Example 150, N-(3-Chloro-4-fluorophenyl)-N′-hydroxy-2-(1H-pyrazol-5-yl)-1H-imidazo[4,5-b]pyridine-7-carboximidamide], the EC50 stood at 8.48 µM.

The assay is the same for the next values; noted with them: HeLa cells, IFNγ-induced IDO1, kynurenine in supernatant, 48 hour incubation; geometric mean of a minimum of four determinations.
On to `CO[C@@H]1CN(C)C[C@H]1Nc1nc2c(F)c(F)cc(/C(=N/O)Nc3ccc(F)c(Cl)c3)c2[nH]1` [Example 458, N-(3-chloro-4-fluorophenyl)-4,5-difluoro-N′-hydroxy-2-(((3R,4R)-4-methoxy-1-methylpyrrolidin-3-yl)amino)-1H-benzo[d]imidazole-7-carboximidamide], for which the EC50 turned out to be 0.261 µM.

As for `Nc1ccccc1CNc1nc2c(F)c(F)cc(/C(=N/O)Nc3ccc(F)c(Cl)c3)c2[nH]1` [Example 347, 2-((2-aminobenzyl)amino)-N-(3-chloro-4-fluorophenyl)-4,5-difluoro-N′-hydroxy-1H-benzo[d]imidazole-7-carboximidamide], a half-maximal effect (EC50) was put at 3.27 µM.

The compound `ON=C(Nc1ccc(F)c(Cl)c1)c1cc(F)c(F)c2nc(Cl)[nH]c12` [Example 346, 2-chloro-N-(3-chloro-4-fluorophenyl)-4,5-difluoro-N′-hydroxy-1H-benzo[d]imidazole-7-carboximidamide] had an EC50 of 8.47 µM.

`O/N=C(\Nc1ccc(F)c(Cl)c1)c1ccnc2nc(CC3CCCN3)[nH]c12` (centres unmarked) [Example 329, N-(3-chloro-4-fluorophenyl)-N′-hydroxy-2-(pyrrolidin-2-ylmethyl)-1H-imidazo[4,5-b]pyridine-7-carboximidamide] yielded an EC50 of 5 µM.

Compound `CN1CCCCC1Cc1nc2nccc(/C(=N/O)Nc3ccc(F)c(Cl)c3)c2[nH]1` (centres unmarked) [Example 305, N-(3-chloro-4-fluorophenyl)-N′-hydroxy-2-((1-methylpiperidin-2-yl)methyl)-1H-imidazo[4,5-b]pyridine-7-carboximidamide] registered an EC50 of 3.49 µM.

In turn, `O/N=C(\Nc1ccc(F)c(Cl)c1)c1cc(F)c(F)c2nc(NCCCN3CCCC3)[nH]c12` [Example 434, N-(3-chloro-4-fluorophenyl)-4,5-difluoro-N′-hydroxy-2-((3-(pyrrolidin-1-yl)propyl)amino)-1H-benzo[d]imidazole-7-carboximidamide] registered an EC50 of 1.24 µM.

`CN1CCOC[C@H]1CNc1nc2nccc(/C(=N/O)Nc3ccc(F)c(Cl)c3)c2[nH]1` [Example 482, (R)-N-(3-chloro-4-fluorophenyl)-N′-hydroxy-2-(((4-methylmorpholin-3-yl)methyl)amino)-1H-imidazo[4,5-b]pyridine-7-carboximidamide] yielded an EC50 of 2.65 µM.

`CC(CN(C)C)c1nc2nccc(/C(=N/O)Nc3ccc(F)c(Cl)c3)c2[nH]1` (centres unmarked) [Example 326, N-(3-chloro-4-fluorophenyl)-2-(1-(dimethylamino)propan-2-yl)-N′-hydroxy-1H-imidazo[4,5-b]pyridine-7-carboximidamide] gave an EC50 of 4.05 µM.

`CN(C)CC(O)CNc1nc2c(F)c(F)cc(/C(=N/O)Nc3ccc(F)c(Cl)c3)c2[nH]1` (centres unmarked) [Example 448, N-(3-chloro-4-fluorophenyl)-2-((3-(dimethylamino)-2-hydroxypropyl)amino)-4,5-difluoro-N′-hydroxy-1H-benzo[d]imidazole-7-carboximidamide] registered an EC50 of 1.12 µM.

In turn, `O/N=C(\Nc1ccc(F)c(Cl)c1)c1cc(F)c(F)c2nc(NCCCN3CCOCC3)[nH]c12` [Example 433, N-(3-chloro-4-fluorophenyl)-4,5-difluoro-N′-hydroxy-2-((3-morpholinopropyl)amino)-1H-benzo[d]imidazole-7-carboximidamide] gave a half-maximal effective concentration (EC50) of 0.882 µM.

On to `N#CCCNc1nc2c(F)c(F)cc(/C(=N/O)Nc3ccc(F)c(Cl)c3)c2[nH]1` [Example 340, N-(3-chloro-4-fluorophenyl)-2-((2-cyanoethyl)amino)-4,5-difluoro-N′-hydroxy-1H-benzo[d]imidazole-7-carboximidamide], for which the EC50 turned out to be 1.78 µM.

`O/N=C(\Nc1ccc(F)c(Cl)c1)c1cc(F)c(F)c2nc(NCc3ccccn3)[nH]c12` [Example 342, N-(3-chloro-4-fluorophenyl)-4,5-difluoro-N′-hydroxy-2-((pyridin-2-ylmethyl)amino)-1H-benzo[d]imidazole-7-carboximidamide] returned an EC50 of 8.49 µM.

In turn, `ON=C(Nc1ccc(F)c(Cl)c1)c1cc(F)c(F)c2nc(NCc3ncc[nH]3)[nH]c12` [Example 345, 2-(((1H-imidazol-2-yl)methyl)amino)-N-(3-chloro-4-fluorophenyl)-4,5-difluoro-N′-hydroxy-1H-benzo[d]imidazole-7-carboximidamide] yielded an EC50 of 3.84 µM.

`Nc1nc2cc(F)cc(/C(=N/O)Nc3ccc(F)c(Br)c3)c2[nH]1` [Example 373, 2-amino-N-(3-bromo-4-fluorophenyl)-5-fluoro-N′-hydroxy-1H-benzo[d]imidazole-7-carboximidamide] gave an EC50 of 0.736 µM.
